Measured values reported in the CheMixHub ionic liquid set.

Experiment: xn = mol fraction of the nth substance listed

C=C[n+]1ccn(CCCC)c1.N[C@@H](Cc1c[nH]cn1)C(=O)[O-] + O
101.3 kPa
Conditions	electrical conductivity [S/m]	viscosity [mPa·s]
303.15 K, x1 = 0.3	3.56	8.1
303.15 K, x1 = 0.9	0.59	1179
323.15 K, x1 = 1	0.21	1418
333.15 K, x1 = 0.3	–	4.19
343.15 K, x1 = 0.7	–	29.04
353.15 K, x1 = 0.5	–	12.68

CC(=O)[O-].CCCC[n+]1ccn(C)c1 + O
Conditions	viscosity [mPa·s]
293.15 K, 100 kPa, x2 = 0.1843	559
293.15 K, 100 kPa, x2 = 0.3889	298
293.15 K, 100 kPa, x2 = 0.5951	124.3
293.15 K, 100 kPa, x2 = 0.8004	32.1
298.15 K, 100 kPa, x2 = 0	595
298.15 K, 101 kPa, x1 = 0.03479	2.23
298.15 K, 101 kPa, x1 = 0.03897	2.35
298.15 K, 101 kPa, x1 = 0.04311	2.66
303.15 K, 100 kPa, x2 = 0	400
303.15 K, 100 kPa, x2 = 0.1843	262
303.15 K, 100 kPa, x2 = 0.3889	150
303.15 K, 100 kPa, x2 = 0.5951	68.8
303.15 K, 100 kPa, x2 = 0.8004	19.69
303.15 K, 101 kPa, x1 = 0.03479	2.18
303.15 K, 101 kPa, x1 = 0.03897	2.29
303.15 K, 101 kPa, x1 = 0.04311	2.63
308.15 K, 101 kPa, x1 = 0.03479	2.16
308.15 K, 101 kPa, x1 = 0.03897	2.25
308.15 K, 101 kPa, x1 = 0.04311	2.56
313.15 K, 100 kPa, x2 = 0	200
313.15 K, 100 kPa, x2 = 0.0171	138.1
313.15 K, 100 kPa, x2 = 0.1843	138.2
313.15 K, 100 kPa, x2 = 0.3889	85
313.15 K, 100 kPa, x2 = 0.5951	41.9
313.15 K, 100 kPa, x2 = 0.8004	13.12
313.15 K, 101 kPa, x1 = 0.03479	2.13
313.15 K, 101 kPa, x1 = 0.03897	2.22
313.15 K, 101 kPa, x1 = 0.04311	2.49
318.15 K, 101 kPa, x1 = 0.03479	1.74
318.15 K, 101 kPa, x1 = 0.03897	2.11
318.15 K, 101 kPa, x1 = 0.04311	2.29
323.15 K, 100 kPa, x2 = 0	111.7
323.15 K, 100 kPa, x2 = 0.1843	79.7
323.15 K, 100 kPa, x2 = 0.3889	51.8
323.15 K, 100 kPa, x2 = 0.5951	26.97
323.15 K, 100 kPa, x2 = 0.8004	9.09
323.15 K, 101 kPa, x1 = 0.03479	1.58
323.15 K, 101 kPa, x1 = 0.03897	2.07
323.15 K, 101 kPa, x1 = 0.04311	2.26
328.15 K, 101 kPa, x1 = 0.03479	1.51
328.15 K, 101 kPa, x1 = 0.03897	1.91
328.15 K, 101 kPa, x1 = 0.04311	2.02
333.15 K, 100 kPa, x2 = 0	67.3
333.15 K, 100 kPa, x2 = 0.01197	48.8
333.15 K, 100 kPa, x2 = 0.1843	48.6
333.15 K, 100 kPa, x2 = 0.3889	33.6
333.15 K, 100 kPa, x2 = 0.5951	18.26
333.15 K, 101 kPa, x1 = 0.03479	1.24
333.15 K, 101 kPa, x1 = 0.03897	1.86
333.15 K, 101 kPa, x1 = 0.04311	1.97
343.15 K, 100 kPa, x2 = 0	41.6
343.15 K, 100 kPa, x2 = 0.1843	32.4
343.15 K, 100 kPa, x2 = 0.3889	23.31
343.15 K, 100 kPa, x2 = 0.5951	13
353.15 K, 100 kPa, x2 = 0	27.86
353.15 K, 100 kPa, x2 = 0.1843	22.25
353.15 K, 100 kPa, x2 = 0.3889	16.58
353.15 K, 100 kPa, x2 = 0.5951	9.64
363.15 K, 100 kPa, x2 = 0	19.87
363.15 K, 100 kPa, x2 = 0.1843	15.93
363.15 K, 100 kPa, x2 = 0.5951	7.37
373.15 K, 100 kPa, x2 = 0	14.82
373.15 K, 100 kPa, x2 = 0.1843	11.94

CC(=O)[O-].C[NH+](C)C + O
298.15 K, 101 kPa
Conditions	viscosity [mPa·s]
x1 = 0.5942	2.59
x1 = 0.8068	2.64
x1 = 0.8639	2.66

CC(O)C(=O)[O-].CN(C)CCOCC[NH+](C)C + O
Conditions	viscosity [mPa·s]
298.15 K, 100 kPa, x1 = 0.06665	2.86

CCCCCCCCCCCC[N+](C)(C)CC.[Br-] + O
viscosity [mPa·s], 101 kPa
Conditions	x1 = 3.604e-05	x1 = 9.009e-05	x1 = 0.0001441	x1 = 0.0001802	x1 = 0.0002702	x1 = 0.0003603	x1 = 0.0004503	x1 = 0.0005403
298.15 K	0.895	0.903	0.913	0.916	0.929	0.938	0.947	0.956
303.15 K	0.796	0.807	0.816	0.822	0.831	0.839	0.847	0.854
308.15 K	0.714	0.726	0.735	0.74	0.75	0.758	0.765	0.773
313.15 K	0.647	0.658	0.666	0.673	0.682	0.688	0.693	0.699
318.15 K	0.587	0.595	0.605	0.61	0.619	0.623	0.628	0.632

CCCC[N+]1(C)CCCC1.N#C[N-]C#N + O
100 kPa
Conditions	viscosity [mPa·s]
298.15 K, x2 = 0.8348	8
318.15 K, x2 = 0.5802	9
323.15 K, x2 = 0.6452	7
333.15 K, x2 = 0.5238	7
338.15 K, x2 = 0.371	7.8
338.15 K, x2 = 0.3756	7.8

CCCC[n+]1cccc(C)c1.F[B-](F)(F)F + O
298.15 K, 101 kPa
Conditions	electrical conductivity [S/m]
x1 = 0.0002144	0.107
x1 = 0.0004179	0.2
x1 = 0.0004845	0.232
x1 = 0.0007527	0.331
x1 = 0.001001	0.448
x1 = 0.001159	0.5
x1 = 0.00129	0.549
x1 = 0.001546	0.642
x1 = 0.001714	0.709
x1 = 0.001876	0.763
x1 = 0.002129	0.837
x1 = 0.002298	0.886
x1 = 0.002565	0.977
x1 = 0.002757	1.03
x1 = 0.002862	1.08
x1 = 0.003167	1.15
x1 = 0.003324	1.2
